The record followed here is patent US12662484B2, “Substituted piperidines as bruton's tyrosine kinase inhibitors” (Shenzhen TargetRx, Inc., priority 2016, dated 2026).

One data set addresses T1, ITK (Homo sapiens, UniProt Q08881).
T1 construct: purchased Carna 08-181
T1 sequence (Q08881 1-620): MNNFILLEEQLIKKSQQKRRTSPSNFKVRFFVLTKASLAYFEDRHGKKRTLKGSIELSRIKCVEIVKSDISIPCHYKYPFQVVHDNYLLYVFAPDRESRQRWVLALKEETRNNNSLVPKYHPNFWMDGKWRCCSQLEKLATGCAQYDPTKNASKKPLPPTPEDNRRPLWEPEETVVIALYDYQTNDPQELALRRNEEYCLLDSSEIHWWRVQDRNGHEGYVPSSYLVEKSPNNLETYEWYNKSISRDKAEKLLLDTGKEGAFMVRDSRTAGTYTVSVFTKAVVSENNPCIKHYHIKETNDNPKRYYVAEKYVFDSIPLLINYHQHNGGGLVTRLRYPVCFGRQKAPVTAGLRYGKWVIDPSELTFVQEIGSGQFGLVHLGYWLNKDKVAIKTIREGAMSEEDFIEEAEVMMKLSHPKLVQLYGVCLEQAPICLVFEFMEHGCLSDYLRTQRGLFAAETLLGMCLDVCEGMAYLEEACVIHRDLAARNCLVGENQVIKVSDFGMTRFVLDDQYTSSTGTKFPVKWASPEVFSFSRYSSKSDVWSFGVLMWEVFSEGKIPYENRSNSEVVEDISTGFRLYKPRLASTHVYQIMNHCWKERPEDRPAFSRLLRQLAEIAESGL
Nature of the data set: ITK kinase inhibition test (HTRF). The data set is classed as biochemical. On the procedure: (4) BTK C481S and ITK Kinase Inhibition Test
Reagents and materials: BTK C481S (Carna, catalog number: 08-547), ITK (Carna, catalog number: 08-181). […].
Kinase Assay: Stock solution of the test compounds were prepared. The final concentration of DMSO in the kinase detection system was not exceed 1%. All of the procedures were carried out on ice, and the total volume of the reaction is 10 μL. Compound (4 μL), substrate and ATP (4 μL), and kinase (2 μL) were added to the wells of a 384-well plate in sequence, shaked for 30 sec, and reacted at room temperature for a proper time. Then, the resection was stopped by adding the detection reagents. The reaction mixture was reacted at room temperature for 1 hr, and detected with Microplate Reader. […].
A general note: Time-resolved FRET reads energy transfer from a long-lived donor to a nearby acceptor.

Data set [1] concerns the target T2, Phospho-BTK (Y223) in NIH/3T3 BTK WT cells (Homo sapiens, UniProt Q06187).
T2 construct: expressed in transfected cells; host or cells: NIH/3T3
Nature of the data set: Phospho-BTK (Y223) assay, NIH/3T3 BTK WT cells. Conditions: phospho-BTK Y223, NIH/3T3 BTK WT cells; read-out: NIH/3T3 BTK-WT pBTK IC50. The data set is classed as cell-based. On the procedure:
(§1) (5) Phospho-BTK (Y223) Assay The Adherent Cells Protocol: Day 1: • 1. […] The plate was incubated overnight at 37° C., 5% CO2. Day 2: • 1. 3-fold compound dilution was prepared, and dispensed 50 μL into 100 μL cell culture. 0.5% DMSO was used as positive control of the cell growth. • 2. The plate was incubated at 37° C., 5% CO2 for 0.5 h. • 3. 50 μL of 1 mM Na3VO4 was added, and incubated at 37° C., 5% CO2 for 2 h. • 4. During the incubation, the following reagents were prepared: 1× supplemented lysis buffer: 3 vol ddH2O+1 vol 4× Lysis buffer+100× Blocking reagent. p-BTK (Y223) cryptate-antibody and p-BTK (Y223) d2-antibody working solution: 1 volume of the stock solution of each antibody frozen aliquot (stored at)−20° was added into 19 volumes of the detection buffer (stored at) 4°. • 5. At the end of the incubation, the plate was flicked to remove the medium, then added 50 μL of 1× supplemented lysis buffer, and incubated at RT for 30 min, with 500 rpm shaking. • 6. The lysate was homogenized by pipetting up and down, and transferred 16 μL to a 384-well microplate. 1× supplemented lysis buffer was used as blank control. • 7. 4 μL of premixed antibody working solutions (cryptate Ab:d2 Ab=1:1) was added. The plate was covered with a plate sealer. • 8. Incubated at RT overnight. […] Data Analysis:
(§2) The IC50 value was calculated with GraphPad Prism 7.0.
(§3) The IC50 of the compounds for phosphorylating BTK Y223 was fit using the following formula.

The next data set concerns the target T3, BTK C481S (Homo sapiens, UniProt Q06187, C481S).
T3 construct: purchased Carna 08-547
Kind of data set: BTK C481S kinase inhibition test (HTRF). The data set is classed as biochemical. Here is the method: Kinase Assay: Stock solution of the test compounds were prepared. The final concentration of DMSO in the kinase detection system was not exceed 1%. All of the procedures were carried out on ice, and the total volume of the reaction is 10 μL. Compound (4 μL), substrate and ATP (4 μL), and kinase (2 μL) were added to the wells of a 384-well plate in sequence, shaked for 30 sec, and reacted at room temperature for a proper time. Then, the resection was stopped by adding the detection reagents. The reaction mixture was reacted at room temperature for 1 hr, and detected with Microplate Reader.

The target in another data set is T4, BTK (Homo sapiens, UniProt Q06187).
T4 construct: purchased Invitrogen PR5442A
Nature of the data set: Kinase inhibition test (HTRF), BTK. Conditions: 1 nM BTK, 20 μM ATP. Type of data set: biochemical. Here is the method:
(1) Kinase Inhibition Test
• 1) Compound dilution: The test compounds were dissolved in DMSO to make a 10 mM stock solution.

The conditions of data set [2]: male, Sprague-Dawley, rat, in vivo.
Another data set can be described thus: in vivo. The conditions noted are these: male, Sprague-Dawley, rat.
Data set [3] has as its target T5, Phospho-BTK (Y223) in NIH/3T3 BTK C481S cells (Homo sapiens, UniProt Q06187, C481S).
T5 construct: expressed in transfected cells; host or cells: NIH/3T3
Nature of the data set: Phospho-BTK (Y223) assay, NIH/3T3 BTK C481S cells. The data set is classed as cell-based. The conditions noted are these: phospho-BTK Y223, NIH/3T3 BTK C481S cells; read-out: NIH/3T3 BTK-C481S pBTK IC50. Here is the method:
as §1, §2, §3

Data set [4] in a line: Pharmacokinetics and brain distribution study after a single oral administration.
From the text: (6) Pharmacokinetics and Brain Distribution Study in Male Sprague Dawley Rats Following a Single Oral Administration
This study is designed to evaluate the pharmacokinetics and brain distribution of compounds disclosed herein in male Sprague Dawley Rat following a single Oral administration.
The animals were fasted overnight from 18:00 p.m. before the dosing day, and fed at 4 hr post-dose. All animals were free access to water during the study. Blood, CSF and brain were collected after each occasion of dosing at 0.5, 1, 2, and 8 hr. Blood samples (˜0.25 mL per time-point) were collected via jugular venous sinus puncture and placed in K2EDTA-containing tubes. Immediately following blood collection, the samples were inverted several times and held on wet ice before centrifugation. All the samples were centrifuged within 30 min of collection under refrigeration (set to maintain 4° C. for 5 min at 6000 rpm) to obtain plasma. The CSF samples (about 100 μL) were collected into tubes via puncture of the cisterna magna. The brain samples were rinsed with saline, drained with filter paper and removed with blood vessels, then weighted and recorded. 5-fold of the homogenate solvent (30% MeOH/70% 10 mM PBS) were used for the homogenization. All the samples were stored at −80° C., or lower until being analyzed with LC-MS/MS. Concentrations of the compounds disclosed herein in each matrix were used for PK analysis by non-compartmental method using WinNonlin.
Where [5] appears, read: male SD rat, 10 mg/kg oral, CSF.
The mark [6] stands for this setting: male SD rat, 10 mg/kg oral, brain.
The mark [7] stands for this setting: male SD rat, 10 mg/kg oral, plasma.
Setting [8] is: male, Sprague Dawley, rat, CSF, po, 10 mg/kg.
[9] abbreviates: male, Sprague Dawley, rat, brain, po, 10 mg/kg.
Setting [10] is: male, Sprague Dawley, rat, plasma, po, 10 mg/kg.

SMILES strings stand for the structures. Some results are limits rather than exact numbers.

T3 sequence (Q06187 whole entry C481S): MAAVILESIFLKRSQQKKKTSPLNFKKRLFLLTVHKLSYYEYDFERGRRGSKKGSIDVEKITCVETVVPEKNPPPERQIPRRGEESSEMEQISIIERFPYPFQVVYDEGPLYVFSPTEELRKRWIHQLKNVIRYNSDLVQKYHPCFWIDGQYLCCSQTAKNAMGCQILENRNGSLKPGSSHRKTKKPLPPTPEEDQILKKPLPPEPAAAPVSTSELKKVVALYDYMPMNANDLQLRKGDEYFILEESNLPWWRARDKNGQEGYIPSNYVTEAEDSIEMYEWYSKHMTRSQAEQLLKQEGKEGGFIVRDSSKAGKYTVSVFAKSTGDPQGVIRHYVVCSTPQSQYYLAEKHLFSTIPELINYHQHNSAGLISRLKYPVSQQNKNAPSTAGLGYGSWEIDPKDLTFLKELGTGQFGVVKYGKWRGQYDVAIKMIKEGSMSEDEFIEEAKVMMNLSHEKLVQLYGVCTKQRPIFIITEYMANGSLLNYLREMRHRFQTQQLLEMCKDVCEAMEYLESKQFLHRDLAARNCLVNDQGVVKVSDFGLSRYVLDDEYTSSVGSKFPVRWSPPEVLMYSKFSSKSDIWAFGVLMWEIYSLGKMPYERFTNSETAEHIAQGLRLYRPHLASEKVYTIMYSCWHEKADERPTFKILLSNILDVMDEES
T5 sequence (Q06187 whole entry C481S): as above
T2 sequence (Q06187 whole entry): as the sequence (Q06187 whole entry C481S) above, with S481C counted along it
T4 sequence (Q06187 whole entry): as the sequence (Q06187 whole entry C481S) above, with S481C counted along it

What is called AUC(0-t) is the area under the concentration-time curve up to a stated or last time point. What is called Cmax is the peak of the concentration-time curve. In general, Tmax refers to the time at which the peak concentration occurs. As for `C=CC(=O)N1CCC[C@@H](c2nc(-c3ccc(Oc4ccccc4)cc3)c3c(N)ncnn23)C1` [Example 8, (R)-1-(3-(4-amino-5-(4-phenoxyphenyl)imidazo[5,1-f][1,2,4]triazin-7-yl)piperidin-1-yl)prop-2-en-1-one], the IC50 at ITK was 172 nM; in data set [1] it was 4.86 nM; at BTK C481S it was 3.85 nM; against BTK, under 1 nM; in data set [3] it was 291 nM. In data set [2], this compound had an F of 16.0%. Besides, the AUC(0-t) turned out to be 255 ng·h/mL in “in vivo” (iv, 0.5 mg/kg) and 820 ng·h/mL in “in vivo” (po, 10 mg/kg). Also, the Cmax turned out to be 1120 ng/mL in “in vivo” (iv, 0.5 mg/kg) and 348 ng/mL in “in vivo” (po, 10 mg/kg). Moreover, the Tmax in “in vivo” (po, 10 mg/kg) turned out to be 20 min.
Take `C=CC(=O)N1CCC[C@@H](c2nn(-c3ccc(Oc4ccccc4)cc3)c3c(N)ncnc23)C1` [Example 5, (R)-1-(3-(7-amino-1-(4-phenoxyphenyl)-1H-pyrazolo[4,3-d]pyrimidin-3-yl)piperidin-1-yl)prop-2-en-1-one]: the IC50 at ITK came out at 619 nM; in data set [1] it was 5.48 nM; against BTK C481S, 6.02 nM; in data set [3], 663 nM.
Usually AUC(0-inf) stands for total exposure, with the tail of the curve extrapolated. Low readings indicate less exposure, high ones more exposure. As a reminder, the MRT inf is the average time that molecules of a dose stay in the body. The term half-life denotes the time in which the quantity being followed falls by half. Higher therefore signals slow decline. For `C=CC(=O)N1CCC[C@@H](c2nc(-c3ccc(Oc4ccccc4)cc3)c3c(N)nccn23)C1` [Example 7, (R)-1-(3-(8-amino-1-(4-phenoxyphenyl)imidazo[1,5-a]pyrazin-3-yl)piperidin-1-yl)prop-2-en-1-one], the “Cmax, CSF” value in data set [4] (setting [5]) was 0.478 ng/mL. The “Cmax, Brain” value in data set [4] (setting [6]) was 18 ng/mL. In addition, in data set [4] (setting [7]), the “Cl_pred, Plasma” value is reported as 586 and the “Vz_pred, Plasma” value stood at 85.5 L/kg. Further, in data set [4] (setting [8]), the AUC(0-t) worked out at 0.119 ng·h/mL and the Tmax came out at 30 min. In addition, in data set [4] (setting [9]), the AUC(0-t) stood at 16.4 ng·h/mL and the Tmax was 30 min. Further, in data set [4] (setting [10]), the AUC(0-inf) was found to be 285 ng·h/mL, the AUC(0-t) stood at 275 ng·h/mL, the Cmax worked out at 117 ng/mL and the MRT inf stood at 122 min. In data set [4] (setting [10]), the Tmax was found to be 30 min and the half-life is 101 min. The compound also displayed an IC50 against ITK of 21.9 nM. Also, the IC50 in data set [1] was 7.36 nM. Also, the IC50 against BTK C481S was 2.46 nM. Besides, the IC50 in data set [3] came out at 162 nM.
Take `C=CC(=O)N1CCC[C@@H](c2cn(-c3ccc(Oc4ccccc4)cc3)c3c(N)ncnc23)C1` [Example 3, (S)-1-(3-(4-amino-5-(4-phenoxyphenyl)-5H-pyrrolo[3,2-d]pyrimidin-7-yl)piperidin-1-yl)prop-2-en-1-one]: the IC50 worked out at 139 nM on ITK, 6.62 nM in data set [1], 10.7 nM at BTK C481S and 502 nM in data set [3].
Consider `C=CC(=O)N1CCC[C@@H](n2nc(-c3ccc(Oc4ccccc4)cc3)c3c(N)ncnc32)C1` [Ibrutinib, reference compound], for which the “Cmax, CSF” value in data set [4] (setting [5]) was determined as 0.35 ng/mL. Also, the “Cmax, Brain” value in data set [4] (setting [6]) is on record as 25.4 ng/mL. The same compound gave an AUC(0-t) in data set [4] (setting [8]) of 0.0875 ng·h/mL. In data set [4] (setting [10]), this compound had an AUC(0-inf) of 666 ng·h/mL, an AUC(0-t) of 626 ng·h/mL and an MRT inf of 145 min.
Regarding `C=CC(=O)N1CCC[C@H](c2nn(-c3ccc(Oc4ccccc4)cc3)c3c(N)ncnc23)C1` [Example 6, (S)-1-(3-(7-amino-1-(4-phenoxyphenyl)-1H-pyrazolo[4,3-d]pyrimidin-3-yl)piperidin-1-yl)prop-2-en-1-one], the IC50 against ITK was 4380 nM; in data set [1], 18.7 nM; at BTK C481S it was 16.1 nM; in data set [3], over 1000 nM.
